Biological target: T1, human LXRalpha (Homo sapiens, UniProt Q13133)
T1 construct: human LXRalpha (amino acid 205-447); expressed in transfected cells; host or cells: U2/OS osteosarcoma cells, electroporated with pSGGAL-LXRalpha (pSG5 backbone)
T1 sequence (Q13133 205-447): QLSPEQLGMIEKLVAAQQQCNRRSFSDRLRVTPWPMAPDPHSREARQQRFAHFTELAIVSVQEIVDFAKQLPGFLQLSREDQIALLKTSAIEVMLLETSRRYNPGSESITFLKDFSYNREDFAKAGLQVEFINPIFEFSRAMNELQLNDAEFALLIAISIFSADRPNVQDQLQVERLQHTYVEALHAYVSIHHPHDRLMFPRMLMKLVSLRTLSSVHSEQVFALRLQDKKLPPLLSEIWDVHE
Test: Transactivation assay (reporter gene assay), GAL4-LXRalpha LBD luciferase in U2/OS cells
Format: cell-based
Settings: U2/OS osteosarcoma cells, 48 h incubation, read-out: EC50 for LXRα in the reporter gene assay
Procedure: Expression vectors were prepared by inserting the ligand binding domain cDNA (complementary DNA) of human LXRalpha (amino acid 205-447) and LXRbeta (amino acid 216-461) in frame with, 3′ to the yeast GAL4 transcription factor DNA binding domain and the nuclear localization signal from the T-antigen of Polyoma Virus in the eucaryotic expression vector pSG5 (Stratagene). The resulting expression vectors pSGGAL-LXRalpha and pSGGAL-LXRbeta were used in cotransfection experiments together with the pGL3 luciferase reporter plasmid containing a minimal SV40 promoter (Promega) and five copies of the UAS GAL4 recognition site. 2.5 μg pSGGAL-LXRalpha or beta were mixed with 25 μg pGL3 5×UAS and 22.5 μg pBluscript (Stratagene) in 0.95 mL ice cold PBS containing approx. 4-9 milj. U2/OS osteosarcoma cells. After a five minute incubation on ice the cell/DNA mixture was electroporated in 0.4 cm cuvettes at 960 μF, 230 V using a BioRad electroporator and diluted to 0.32 milj cells/mL in complete DMEM [Dulbecco's Modified Eagle Medium w/o phenol red, (Gibco 11880-028) including 10% FBS (Foetal Bovine Serum), 1% PEST (Penicillin Streptomycin), 20 mM Hepes, 2 mM L-Glutamine and 0.36% Glucose Gibco 31966-021] medium. […] Luciferase activity was measured as Luminescence in the Wallac Victor reader after 15 min. incubation at room temperature. […]

| SMILES | EC50 |
| --- | --- |
| CC(C)N1C(=S)C(NC2CCN(c3ncc(C(F)(F)F)cc3Cl)CC2)=C(c2ccccc2)S1(=O)=O [Example 1, 4-({1-[3-Chloro-5-(trifluoromethyl)pyridin-2-yl]piperidin-4-yl}amino)-2-isopropyl-5-phenylisothiazole-3(2H)-thione 1,1-dioxide] | 3.1 µM |
| CC(C)N1C(=S)C(NCCCCc2ccccc2)=C(c2ccccc2)S1(=O)=O [Example 2, 2-Isopropyl-5-phenyl-4-[(4-phenylbutyl)amino]isothiazole-3(2H)-thione 1,1-dioxide] | 10.5 µM |

Reference: patent US20080319017A2, “Non-Anilinic Derivatives of Isothiazol-3(2H)-Thione 1,1-Dioxides As Liver X Receptor Modulators” (ASTRAZENECA AB, priority 2005, published 2008)
